Several values for one entry are separate records, joined by “and”; a condition that tells them apart may be missing. Identical values can stand only once. Counter-ions that a name gives are not always drawn. Values belong to the molecule of their own block, whether it stands above or below them.
Experiments:
Lambda Light Chain = assay: Automated protein assay with pyrogallol red salts, 74 μM (Example 6); settings: Series #1 and #2; for Percent Detection as Percentage of HSA Detection: Lambda Light Chain; for average net absorbance at 600 nm after subtracting PBS sample reaction result: Lambda Light Chain 25 mg/dL, 10 minutes, 37° C, 900 nm baseline subtracted
Experimental: (§1) The dilutor was programmed for reactions of 180 μL reagent+40 μL sample. […] The samples were phosphate buffered saline (blank), human serum albumin (HSA) 25 mg/dL, and other proteins (i.e., human IgG, […], and Lambda Light Chain) at 25 mg/dL. Absorbance data were collected on a Biotek, Powerwave X Microplate Absorbance reader using BioTek “KC Jr” software to determine the relative detection of the different proteins (i.e., HSA, human IgG, […], and Lambda Light Chain) using salts of pyrogallol red. Two sets of replicates of the different proteins were run. […] The protein response was determined by subtracting the phosphate buffered saline sample reaction result from the protein reaction result. […] The results for protein equivalence of the non-albumin proteins were expressed as a percentage of the protein colorimetric response to HSA as shown in Table 11 below.

[1] = Butanol/water partitioning of dye salts (Example 2); settings: for Absorbance of Base in Butanol: butanol layer; for Partition Ratio of Butanol Absorbance to Water Absorbance: corrected by intensity factor; for Absorbance of Base in Water: water layer
Experimental: The five dye solutions were then treated with 1 equivalent of each base listed in Tables 1-5 (i.e., sodium hydroxide, TRIS, and triethylamine) to form salt solutions (i.e., sodium salt solutions, TRIS salt solutions, and triethylamine salt solutions respectively).
A 50 μL portion of each salt solution was then mixed with 950 μL water and 1000 μL butanol. […] Where necessary to deal with lingering interface phases, the samples were centrifuged.
Tests were then performed on the respective salt solutions to determine whether the salts of the respective dyes dissolved preferentially in butanol (a more lipophilic solvent) or water (a less lipophilic solvent). […] Spectroscopy versus the butanol blank or the water blank was done as 50 μL upper (butanol) or lower (aqueous) phase plus 950 μL corresponding solvent. All absorbances were blanked on solvent in a quartz cuvette and were baseline corrected at an absorbance of 900 nm before subsequent calculations to correct for cuvette placement, dust, etc. All absorbances were then measured at the wavelengths noted below.
Before determining the butanol to water absorbance levels, the absorbance of the solute in butanol was corrected for solvent dependent shifts in wavelength maximum and intensity based on the reference spectra of known gravimetric quantities of the dye salts in butanol and water. For such cases, the partition ratio of butanol absorbance to water absorbance was calculated using the following formula: Partition Ratio=Sample Absorbance in Butanol×Intensity Factor/Sample Absorbance in Water where the intensity factor was calculated using the following formula: Intensity Factor=Reference Sample Absorbance at λmax in water/Reference Sample Absorbance at λmax in butanol The intensity factor adjusts for those cases where the same concentration of dye in the two different solvents produced two different absorbances.

[2] = Butanol/water partitioning of pyrogallol red dye salts (Example 3); type: physicochemical; settings: 276 nm; for Absorbance of Dye Salt in Butanol: butanol layer; for Absorbance of Dye Salt in Water: water layer
Experimental: Extractions were then performed in Mixxor extractors.

[3] = target: human serum albumin (HSA) (Homo sapiens, UniProt P02768); assay: Automated protein assay with pyrogallol red salts, 74 μM (Example 6); settings: HSA 25 mg/dL; 10 minutes, 37° C; 900 nm baseline subtracted; Series #1 and #2
Sequence of human serum albumin (HSA) (P02768 25-609): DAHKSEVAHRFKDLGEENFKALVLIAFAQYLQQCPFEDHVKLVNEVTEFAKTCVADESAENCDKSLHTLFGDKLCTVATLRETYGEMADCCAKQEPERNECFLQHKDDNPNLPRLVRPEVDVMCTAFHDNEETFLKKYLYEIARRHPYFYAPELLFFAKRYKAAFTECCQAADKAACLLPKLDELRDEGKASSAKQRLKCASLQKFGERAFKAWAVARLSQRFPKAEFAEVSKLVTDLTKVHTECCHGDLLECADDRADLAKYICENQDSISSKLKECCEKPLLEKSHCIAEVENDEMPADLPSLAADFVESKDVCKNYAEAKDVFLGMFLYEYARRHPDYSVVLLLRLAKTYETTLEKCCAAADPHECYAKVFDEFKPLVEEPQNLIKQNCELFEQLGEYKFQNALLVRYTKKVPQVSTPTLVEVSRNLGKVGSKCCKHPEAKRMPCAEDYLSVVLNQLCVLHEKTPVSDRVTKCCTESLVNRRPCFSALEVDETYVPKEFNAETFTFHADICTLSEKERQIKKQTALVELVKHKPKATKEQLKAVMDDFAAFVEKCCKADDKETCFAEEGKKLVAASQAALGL
Experimental: The dilutor was programmed for reactions of 180 μL reagent+40 μL sample. […] The samples were phosphate buffered saline (blank), human serum albumin (HSA) 25 mg/dL, and other proteins (i.e., human IgG, […], and Lambda Light Chain) at 25 mg/dL. Absorbance data were collected on a Biotek, Powerwave X Microplate Absorbance reader using BioTek “KC Jr” software to determine the relative detection of the different proteins (i.e., HSA, human IgG, […], and Lambda Light Chain) using salts of pyrogallol red. Two sets of replicates of the different proteins were run. […] The protein response was determined by subtracting the phosphate buffered saline sample reaction result from the protein reaction result.

Tamm-Horsfall = Tamm-Horsfall (Homo sapiens, UniProt P07911); assay: as above; settings: Series #1 and #2; for average net absorbance at 600 nm after subtracting PBS sample reaction result: Tamm-Horsfall 25 mg/dL, 10 minutes, 37° C, 900 nm baseline subtracted; for Percent Detection as Percentage of HSA Detection: Tamm-Horsfall
Experimental: as §1

human IgG = assay: as above; settings: Series #1 and #2; for average net absorbance at 600 nm after subtracting PBS sample reaction result: IgG 25 mg/dL, 10 minutes, 37° C, 900 nm baseline subtracted; for Percent Detection as Percentage of HSA Detection: IgG
Experimental: as §1

[4] = 8-anilino-1-sulfonic acid salts
[5] = 8-anilino-1-sulfonic acid salts, λmax 269 nm
[6] = 8-anilino-1-sulfonic acid salts, reference absorbance in water / in butanol
[7] = 8-anilino-1-sulfonic acid salts, λmax 265 nm
[8] = rosolic acid salts, aqueous reference saturated with butanol
[9] = rosolic acid salts, λmax 562 nm
[10] = rosolic acid salts, λmax 547 nm, four times less dilute solution measured, absorbance divided by four
[11] = erythrosin salts, reference absorbance in water / in butanol
[12] = bromocresol green salts, λmax 630 nm
[13] = bromocresol green salts, reference absorbance in water / in butanol
[14] = bromocresol green salts, λmax 615 nm

Molecule: pyrogallol red [Glucamine Pyrogallol Red Salt]
Percent Detection as Percentage of HSA Detection (Lambda Light Chain): 14%

Molecule: pyrogallol red [Triethylamine Pyrogallol Red Salt]
Percent Detection as Percentage of HSA Detection (Lambda Light Chain; listed as triethylammonium): 3%

Molecule: O=S(=O)(O)c1cccc2cccc(Nc3ccccc3)c12 [8-Anilino-1-Sulfonic Acid, Sodium Hydroxide] [reference compound]
Raw Ratio of Butanol Absorbance to Water Absorbance [1, 4]: 1.9
Absorbance of Base in Butanol [1, 5]: 0.121
Partition Ratio of Butanol Absorbance to Water Absorbance [1, 4]: 1.8
Intensity Factor (IF) [1, 6]: 0.98
Absorbance of Base in Water [1, 7]: 0.065

Molecule: O=C1C=CC(=C(c2ccc(O)cc2)c2ccc(O)cc2)C=C1 [Rosolic Acid, TRIS, rosolic acid]
Raw Ratio of Butanol Absorbance to Water Absorbance ([1]; rosolic acid salts): 17
Intensity Factor (IF) [1, 8]: 1.07
Absorbance of Base in Butanol [1, 9]: 0.055
Partition Ratio of Butanol Absorbance to Water Absorbance ([1]; rosolic acid salts): 18
Absorbance of Base in Water [1, 10]: 0.003

Molecule: O=C1C=CC(=C(c2ccc(O)cc2)c2ccc(O)cc2)C=C1 [Rosolic Acid, Triethylamine, rosolic acid]
Raw Ratio of Butanol Absorbance to Water Absorbance ([1]; rosolic acid salts): 12
Intensity Factor (IF) [1, 8]: 0.94
Absorbance of Base in Butanol [1, 9]: 0.077
Partition Ratio of Butanol Absorbance to Water Absorbance ([1]; rosolic acid salts): 11
Absorbance of Base in Water [1, 10]: 0.006

Molecule: O=S(=O)(O)c1cccc2cccc(Nc3ccccc3)c12 [8-Anilino-1-Sulfonic Acid, Triethylamine, 8-anilino-1-sulfonic acid]
Raw Ratio of Butanol Absorbance to Water Absorbance [1, 4]: 3.4
Absorbance of Base in Butanol [1, 5]: 0.156
Partition Ratio of Butanol Absorbance to Water Absorbance [1, 4]: 3.5
Intensity Factor (IF) [1, 6]: 1.01
Absorbance of Base in Water [1, 7]: 0.045

Molecule: O=c1ccc2c(-c3ccccc3S(=O)(=O)O)c3ccc(O)c(O)c3oc-2c1O [Triethanolamine Salt, pyrogallol red]
Ratio of Butanol Absorbance to Water Absorbance ([2]; Triethanolamine): 0.15
Absorbance of Dye Salt in Butanol ([2]; Triethanolamine): 0.044
Absorbance of Dye Salt in Water ([2]; Triethanolamine): 0.296

Molecule: O=c1ccc2c(-c3ccccc3S(=O)(=O)O)c3ccc(O)c(O)c3oc-2c1O [Glucamine Pyrogallol Red Salt, pyrogallol red]
Ratio of Butanol Absorbance to Water Absorbance ([2]; Glucamine): 0.09
Absorbance of Dye Salt in Butanol ([2]; Glucamine): 0.030
Absorbance of Dye Salt in Water ([2]; Glucamine): 0.328
average net absorbance at 600 nm after subtracting PBS sample reaction result [3]: 0.0618
average net absorbance at 600 nm after subtracting PBS sample reaction result (Lambda Light Chain): 0.0088
Percent Detection as Percentage of HSA Detection (Lambda Light Chain): 14%
average net absorbance at 600 nm after subtracting PBS sample reaction result (Tamm-Horsfall): 0.0123
Percent Detection as Percentage of HSA Detection (Tamm-Horsfall): 20%
average net absorbance at 600 nm after subtracting PBS sample reaction result (human IgG): 0.0318
Percent Detection as Percentage of HSA Detection (human IgG): 51%

Molecule: O=c1ccc2c(-c3ccccc3S(=O)(=O)O)c3ccc(O)c(O)c3oc-2c1O [Triethylamine Pyrogallol Red Salt, pyrogallol red]
Ratio of Butanol Absorbance to Water Absorbance ([2]; Triethylamine): 0.23
Absorbance of Dye Salt in Butanol ([2]; Triethylamine): 0.063
Absorbance of Dye Salt in Water ([2]; Triethylamine): 0.274
average net absorbance at 600 nm after subtracting PBS sample reaction result [3]: 0.0559 and 0.0600
Percent Detection as Percentage of HSA Detection (Lambda Light Chain): 3% and 9%
average net absorbance at 600 nm after subtracting PBS sample reaction result (Tamm-Horsfall): 0.0135 and 0.0109
Percent Detection as Percentage of HSA Detection (Tamm-Horsfall): 22% and 19%
average net absorbance at 600 nm after subtracting PBS sample reaction result (human IgG): 0.0285 and 0.0284
Percent Detection as Percentage of HSA Detection (human IgG): 48% and 51%

Molecule: O=c1ccc2c(-c3ccccc3S(=O)(=O)O)c3ccc(O)c(O)c3oc-2c1O [TRIS Pyrogallol Red Salt, pyrogallol red]
Ratio of Butanol Absorbance to Water Absorbance ([2]; TRIS): 0.13
Absorbance of Dye Salt in Butanol ([2]; TRIS): 0.041
Absorbance of Dye Salt in Water ([2]; TRIS): 0.326
average net absorbance at 600 nm after subtracting PBS sample reaction result [3]: 0.0750
average net absorbance at 600 nm after subtracting PBS sample reaction result (Lambda Light Chain): 0.0030
Percent Detection as Percentage of HSA Detection (Lambda Light Chain): 4%
average net absorbance at 600 nm after subtracting PBS sample reaction result (Tamm-Horsfall): 0.0175
Percent Detection as Percentage of HSA Detection (Tamm-Horsfall): 23%
average net absorbance at 600 nm after subtracting PBS sample reaction result (human IgG): 0.0410
Percent Detection as Percentage of HSA Detection (human IgG): 55%

Molecule: O=C1C=CC(=C(c2ccc(O)cc2)c2ccc(O)cc2)C=C1 [Rosolic Acid, Sodium Hydroxide, rosolic acid, reference compound]
Raw Ratio of Butanol Absorbance to Water Absorbance ([1]; rosolic acid salts): 1.7
Intensity Factor (IF) [1, 8]: 0.69
Absorbance of Base in Butanol [1, 9]: 0.147
Partition Ratio of Butanol Absorbance to Water Absorbance ([1]; rosolic acid salts): 1.2
Absorbance of Base in Water [1, 10]: 0.085

The next lines start with the values.

Raw Ratio of Butanol Absorbance to Water Absorbance ([1]; erythrosin salts): 0.31
Absorbance of Base in Butanol ([1]; erythrosin salts, λmax 536 nm): 0.196
Partition Ratio of Butanol Absorbance to Water Absorbance ([1]; erythrosin salts): 0.28
Intensity Factor (IF) [1, 11]: 0.90
Absorbance of Base in Water ([1]; erythrosin salts, λmax 528 nm): 0.631
Molecule: O=C(O)c1ccccc1-c1c2cc(I)c(=O)c(I)c-2oc2c(I)c(O)c(I)cc12 [Erythrosin, TRIS, erythrosin B]

Raw Ratio of Butanol Absorbance to Water Absorbance ([1]; erythrosin salts): 0.41
Absorbance of Base in Butanol ([1]; erythrosin salts, λmax 536 nm): 0.237
Partition Ratio of Butanol Absorbance to Water Absorbance ([1]; erythrosin salts): 0.38
Intensity Factor (IF) [1, 11]: 0.93
Absorbance of Base in Water ([1]; erythrosin salts, λmax 528 nm): 0.574
Molecule: O=C(O)c1ccccc1-c1c2cc(I)c(=O)c(I)c-2oc2c(I)c(O)c(I)cc12 [Erythrosin, Sodium Hydroxide, erythrosin B, reference compound]

Raw Ratio of Butanol Absorbance to Water Absorbance [1, 4]: 2.6
Absorbance of Base in Butanol [1, 5]: 0.129
Partition Ratio of Butanol Absorbance to Water Absorbance [1, 4]: 2.3
Intensity Factor (IF) [1, 6]: 0.89
Absorbance of Base in Water [1, 7]: 0.050
Molecule: O=S(=O)(O)c1cccc2cccc(Nc3ccccc3)c12 [8-Anilino-1-Sulfonic Acid, TRIS, 8-anilino-1-sulfonic acid]

Raw Ratio of Butanol Absorbance to Water Absorbance ([1]; bromocresol green salts): 2.4
Absorbance of Base in Butanol [1, 12]: 0.237
Partition Ratio of Butanol Absorbance to Water Absorbance ([1]; bromocresol green salts): 6.3
Intensity Factor (IF) [1, 13]: 2.58
Absorbance of Base in Water [1, 14]: 0.097
Molecule: CC1=C(Br)C(=O)C(Br)=C/C1=C(/c1ccccc1S(=O)(=O)O)c1cc(Br)c(O)c(Br)c1C [Bromocresol Green, Triethylamine, bromocresol green]

Raw Ratio of Butanol Absorbance to Water Absorbance ([1]; bromocresol green salts): 1.8
Absorbance of Base in Butanol [1, 12]: 0.315
Partition Ratio of Butanol Absorbance to Water Absorbance ([1]; bromocresol green salts): 1.9
Intensity Factor (IF) [1, 13]: 1.03
Absorbance of Base in Water [1, 14]: 0.175
Molecule: CC1=C(Br)C(=O)C(Br)=C/C1=C(/c1ccccc1S(=O)(=O)O)c1cc(Br)c(O)c(Br)c1C [Bromocresol Green, Sodium Hydroxide, bromocresol green, reference compound]

Raw Ratio of Butanol Absorbance to Water Absorbance ([1]; bromocresol green salts): 1.7
Absorbance of Base in Butanol [1, 12]: 0.250
Partition Ratio of Butanol Absorbance to Water Absorbance ([1]; bromocresol green salts): 4.2
Intensity Factor (IF) [1, 13]: 2.47
Absorbance of Base in Water [1, 14]: 0.146
Molecule: CC1=C(Br)C(=O)C(Br)=C/C1=C(/c1ccccc1S(=O)(=O)O)c1cc(Br)c(O)c(Br)c1C [Bromocresol Green, TRIS, bromocresol green]

Raw Ratio of Butanol Absorbance to Water Absorbance ([1]; erythrosin salts): 0.40
Absorbance of Base in Butanol ([1]; erythrosin salts, λmax 536 nm): 0.240
Partition Ratio of Butanol Absorbance to Water Absorbance ([1]; erythrosin salts): 0.42
Intensity Factor (IF) [1, 11]: 1.04
Absorbance of Base in Water ([1]; erythrosin salts, λmax 528 nm): 0.596
Molecule: O=C(O)c1ccccc1-c1c2cc(I)c(=O)c(I)c-2oc2c(I)c(O)c(I)cc12 [Erythrosin, Triethylamine, erythrosin B]

Source: patent publication US7563621B2, “Absorbing organic reagents into diagnostic test devices by formation of amine salt complexes” (Siemens Healhcare Diagnostics Inc, priority 2003, dated 2009)
